According to publication PMC3963952, “The 2.1 Å Resolution Structure of Cyanopindolol-Bound β1-Adrenoceptor Identifies an Intramembrane Na^+ Ion that Stabilises the Ligand-Free Receptor” (PLoS ONE, 2014):

How the values were obtained:
[1] = biological target: β1AR (Meleagris gallopavo, UniProt P07700)
Protocol: For the thermostability assay for the ligand-free receptor, 1–2.5 mg of E. coli-expressed membrane protein was solubilised for 30 min on ice with 1% DDM and insoluble material was removed by centrifugation (5 min, 20,000 g). Samples were then adjusted to give the desired concentration of NaCl or choline chloride. Thermostability was measured by incubating the sample at the specified temperature for 30 min; reactions were placed on ice, and ^3H-DHA was added (50 nM final concentration) and equilibrated (2 h, 4°C). Receptor-bound and free radioligand were separated by spin gel filtration assays as described previously. Nonspecific binding was determined in the presence of 1 mM alprenolol. Radioactivity was counted on a MicroBeta TriLux scintillation counter (Perkin Elmer), and data were analyzed by nonlinear regression using Prism software (GraphPad).
Figure 4 Thermostability of β1AR mutants.

[2] = test system: A2AR; conditions: cited from earlier work
[3] = biological target: neurotensin receptor (NTSR1); parameters: method as in PMID 23051748; conditions: read-out: EC50 for the allosteric effect of Na+ on NTSR1; cited from earlier work

β1AR, sequence (P07700 whole entry): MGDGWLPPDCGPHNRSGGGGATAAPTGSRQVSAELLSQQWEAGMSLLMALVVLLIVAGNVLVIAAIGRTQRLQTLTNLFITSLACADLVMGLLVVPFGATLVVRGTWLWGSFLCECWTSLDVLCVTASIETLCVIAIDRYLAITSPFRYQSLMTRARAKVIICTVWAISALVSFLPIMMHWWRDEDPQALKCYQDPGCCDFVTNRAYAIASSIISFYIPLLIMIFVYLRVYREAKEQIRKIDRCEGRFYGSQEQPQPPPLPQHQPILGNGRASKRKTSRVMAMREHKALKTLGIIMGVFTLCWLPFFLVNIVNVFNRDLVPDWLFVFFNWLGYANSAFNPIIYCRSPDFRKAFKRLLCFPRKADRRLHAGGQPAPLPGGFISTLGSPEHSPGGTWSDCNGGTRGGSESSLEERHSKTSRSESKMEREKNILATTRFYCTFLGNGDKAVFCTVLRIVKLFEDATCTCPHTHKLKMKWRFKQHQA

| Compound | decrease of β1AR thermostability in the absence of Na+ ([1]; ligand-free β1AR, 150 mM NaCl versus 150 mM choline chloride) [°C] | EC50 ([2]; also calculated from data in ref 21, read-out: EC50 for the allosteric effect of Na+ on A2AR) [mM] | Kd ([2]; no reference given, read-out: KD of Na+ binding to A2AR) [mM] | EC50 [3] [mM] | apparent Tm of dodecylmaltoside-solubilised ligand-free β1AR ([1]; in 150 mM of the named salt, heated 30 min, ±SEM) [°C] |
| --- | --- | --- | --- | --- | --- |
| [Cl-].[Na+] [Na^+] | 7.5 | 40 to 48 | 40 to 50 | 43 |  |
| C[N+](C)(C)CCO.[Cl-] [choline chloride] |  |  |  |  | 19.1±0.6 |
